For nine compounds, IC50 results are on record in patent US20220169628A1 (University of Florida Research Foundation, Incorporated, priority 2019, published 2022).

The structures appear in SMILES notation. pIC50: −log10 of the molar value.

One experiment deals with RS4;11 cells. Description: Cell viability assay, MTS, 48 h, RS4;11. In kind it is cell-based. As to conditions: Homo sapiens, RS4-11, 48 h, 48 hours, read-out: IC50 (48 hours) RS4;11. How it is done: (§1) Acute lymphoblastic leukemia cells (MOLT-4 and RS4; 11) or small cell lung cancer (NCI-H146 or simply H146) were incubated with increasing concentrations of Bcl-xL degraders for 48 h. Cell viability was measured by tetrazolium-based MTS assay.

The subject of the next experiment is MOLT-4 cells. Description: Cell viability assay, MTS, 48 h, MOLT-4. Type of experiment: cell-based. To be noted: Homo sapiens, MOLT-4, 48 h, 48 hours, read-out: IC50 (48 hours) MOLT-4. How it is done: as §1

For `Cc1ncsc1-c1ccc([C@H](C)NC(=O)[C@@H]2C[C@@H](O)CN2C(=O)[C@@H](NC(=O)COCCOCCOCCOCCOCC(=O)NCC2(C)CCC(c3ccc(Cl)cc3)=C(CN3CCN(c4ccc(C(=O)NS(=O)(=O)c5ccc(N[C@H](CCN6CCOCC6)CSc6ccccc6)c(S(=O)(=O)C(F)(F)F)c5)cc4)CC3)C2)C(C)(C)C)cc1` (stereo partly drawn) [degrader #10, N1-((4′-chloro-4-methyl-6-((4-(4-(((4-(((R)-4-morpholino-1-(phenylthio)butan-2-yl)amino)-3-((trifluoromethyl)sulfonyl)phenyl)sulfonyl)carbamoyl)phenyl)piperazin-1-yl)methyl)-2,3,4,5-tetrahydro-[1,1′-biphenyl]-4-yl)methyl)-N17-((S)-1-((2S,4R)-4-hydroxy-2-(((S)-1-(4-(4-methylthiazol-5-yl)phenyl)ethyl)carbamoyl)pyrrolidin-1-yl)-3,3-dimethyl-1-oxobutan-2-yl)-3,6,9,12,15-pentaoxaheptadecanediamide], the negative-log IC50 (pIC50) with RS4;11 cells and in the experiment on MOLT-4 cells was less than 6.30 throughout.

In the case of `Cc1ncsc1-c1ccc([C@H](C)NC(=O)[C@@H]2C[C@@H](O)CN2C(=O)[C@@H](NC(=O)CCCCC#CC#CC2(C)CCC(c3ccc(Cl)cc3)=C(CN3CCN(c4ccc(C(=O)NS(=O)(=O)c5ccc(N[C@H](CCN6CCOCC6)CSc6ccccc6)c(S(=O)(=O)C(F)(F)F)c5)cc4)CC3)C2)C(C)(C)C)cc1` (stereo partly drawn) [degrader #11, (2S,4R)-1-((2S)-2-(9-(4′-chloro-4-methyl-6-((4-(4-(((4-(((R)-4-morpholino-1-(phenylthio)butan-2-yl)amino)-3-((trifluoromethyl)sulfonyl)phenyl)sulfonyl)carbamoyl)phenyl)piperazin-1-yl)methyl)-2,3,4,5-tetrahydro-[1,1′-biphenyl]-4-yl)nona-6,8-diynamido)-3,3-dimethylbutanoyl)-4-hydroxy-N—((S)-1-(4-(4-methylthiazol-5-yl)phenyl)ethyl)pyrrolidine-2-carboxamide], the pIC50 with RS4;11 cells and in the experiment on MOLT-4 cells was less than 6.30 in each case.

For the compound `Cc1ncsc1-c1ccc([C@H](C)NC(=O)[C@@H]2C[C@@H](O)CN2C(=O)[C@@H](NC(=O)CCCCCC#CC#CC2(C)CCC(c3ccc(Cl)cc3)=C(CN3CCN(c4ccc(C(=O)NS(=O)(=O)c5ccc(N[C@H](CCN6CCOCC6)CSc6ccccc6)c(S(=O)(=O)C(F)(F)F)c5)cc4)CC3)C2)C(C)(C)C)cc1` (stereo partly drawn) [degrader #12, (2S,4R)-1-((2S)-2-(10-(4′-chloro-4-methyl-6-((4-(4-(((4-(((R)-4-morpholino-1-(phenylthio)butan-2-yl)amino)-3-((trifluoromethyl)sulfonyl)phenyl)sulfonyl)carbamoyl)phenyl)piperazin-1-yl)methyl)-2,3,4,5-tetrahydro-[1,1′-biphenyl]-4-yl)deca-7,9-diynamido)-3,3-dimethylbutanoyl)-4-hydroxy-N—((S)-1-(4-(4-methylthiazol-5-yl)phenyl)ethyl)pyrrolidine-2-carboxamide], the pIC50 in the experiment on RS4;11 cells and in the experiment with MOLT-4 cells was less than 6.30 in each case.

For the compound `Cc1ncsc1-c1ccc([C@H](C)NC(=O)[C@@H]2C[C@@H](O)CN2C(=O)[C@@H](NC(=O)CCCC(=O)N2CCN(CC3(C)CCC(c4ccc(Cl)cc4)=C(CN4CCN(c5ccc(C(=O)NS(=O)(=O)c6ccc(N[C@H](CCN7CCOCC7)CSc7ccccc7)c(S(=O)(=O)C(F)(F)F)c6)cc5)CC4)C3)CC2)C(C)(C)C)cc1` (stereo partly drawn) [degrader #14, (2S,4R)-1-((2S)-2-(5-(4-((4′-chloro-4-methyl-6-((4-(4-(((4-(((R)-4-morpholino-1-(phenylthio)butan-2-yl)amino)-3-((trifluoromethyl)sulfonyl)phenyl)sulfonyl)carbamoyl)phenyl)piperazin-1-yl)methyl)-2,3,4,5-tetrahydro-[1,1′-biphenyl]-4-yl)methyl)piperazin-1-yl)-5-oxopentanamido)-3,3-dimethylbutanoyl)-4-hydroxy-N—((S)-1-(4-(4-methylthiazol-5-yl)phenyl)ethyl)pyrrolidine-2-carboxamide], the negative-log IC50 (pIC50) (as a rule, −log10 of the IC50, conventionally taken in molar units) with RS4;11 cells is 6.82 to 7.30; in the experiment with MOLT-4 cells it was 6.30 to 6.82.

Turning to `Cc1ncsc1-c1ccc([C@H](C)NC(=O)[C@@H]2C[C@@H](O)CN2C(=O)[C@@H](NC(=O)CCCCC(=O)N2CCN(CC3(C)CCC(c4ccc(Cl)cc4)=C(CN4CCN(c5ccc(C(=O)NS(=O)(=O)c6ccc(N[C@H](CCN7CCOCC7)CSc7ccccc7)c(S(=O)(=O)C(F)(F)F)c6)cc5)CC4)C3)CC2)C(C)(C)C)cc1` (stereo partly drawn) [degrader #15, (2S,4R)-1-((2S)-2-(6-(4-((4′-chloro-4-methyl-6-((4-(4-(((4-(((R)-4-morpholino-1-(phenylthio)butan-2-yl)amino)-3-((trifluoromethyl)sulfonyl)phenyl)sulfonyl)carbamoyl)phenyl)piperazin-1-yl)methyl)-2,3,4,5-tetrahydro-[1,1′-biphenyl]-4-yl)methyl)piperazin-1-yl)-6-oxohexanamido)-3,3-dimethylbutanoyl)-4-hydroxy-N—((S)-1-(4-(4-methylthiazol-5-yl)phenyl)ethyl)pyrrolidine-2-carboxamide], the pIC50 with RS4;11 cells and in the experiment on MOLT-4 cells was 6.82 to 7.30 each time.

Take `Cc1ncsc1-c1ccc([C@H](C)NC(=O)[C@@H]2C[C@@H](O)CN2C(=O)[C@@H](NC(=O)CCCCCC(=O)N2CCN(CC3(C)CCC(c4ccc(Cl)cc4)=C(CN4CCN(c5ccc(C(=O)NS(=O)(=O)c6ccc(N[C@H](CCN7CCOCC7)CSc7ccccc7)c(S(=O)(=O)C(F)(F)F)c6)cc5)CC4)C3)CC2)C(C)(C)C)cc1` (stereo partly drawn) [degrader #16, (2S,4R)-1-((2S)-2-(7-(4-((4′-chloro-4-methyl-6-((4-(4-(((4-(((R)-4-morpholino-1-(phenylthio)butan-2-yl)amino)-3-((trifluoromethyl)sulfonyl)phenyl)sulfonyl)carbamoyl)phenyl)piperazin-1-yl)methyl)-2,3,4,5-tetrahydro-[1,1′-biphenyl]-4-yl)methyl)piperazin-1-yl)-7-oxoheptanamido)-3,3-dimethylbutanoyl)-4-hydroxy-N—((S)-1-(4-(4-methylthiazol-5-yl)phenyl)ethyl)pyrrolidine-2-carboxamide]: the pIC50 with RS4;11 cells and with MOLT-4 cells was more than 7.30 in each case.

With `Cc1ncsc1-c1ccc([C@H](C)NC(=O)[C@@H]2C[C@@H](O)CN2C(=O)[C@@H](NC(=O)CCCCCCC(=O)N2CCN(CC3(C)CCC(c4ccc(Cl)cc4)=C(CN4CCN(c5ccc(C(=O)NS(=O)(=O)c6ccc(N[C@H](CCN7CCOCC7)CSc7ccccc7)c(S(=O)(=O)C(F)(F)F)c6)cc5)CC4)C3)CC2)C(C)(C)C)cc1` (stereo partly drawn) [degrader #17, (2S,4R)-1-((2S)-2-(8-(4-((4′-chloro-4-methyl-6-((4-(4-(((4-(((R)-4-morpholino-1-(phenylthio)butan-2-yl)amino)-3-((trifluoromethyl)sulfonyl)phenyl)sulfonyl)carbamoyl)phenyl)piperazin-1-yl)methyl)-2,3,4,5-tetrahydro-[1,1′-biphenyl]-4-yl)methyl)piperazin-1-yl)-8-oxooctanamido)-3,3-dimethylbutanoyl)-4-hydroxy-N—((S)-1-(4-(4-methylthiazol-5-yl)phenyl)ethyl)pyrrolidine-2-carboxamide], the pIC50 in the experiment with RS4;11 cells and with MOLT-4 cells was more than 7.30 each time.

Regarding `Cc1ncsc1-c1ccc([C@H](C)NC(=O)[C@@H]2C[C@@H](O)CN2C(=O)[C@@H](NC(=O)CCCCCCCC(=O)N2CCN(CC3(C)CCC(c4ccc(Cl)cc4)=C(CN4CCN(c5ccc(C(=O)NS(=O)(=O)c6ccc(N[C@H](CCN7CCOCC7)CSc7ccccc7)c(S(=O)(=O)C(F)(F)F)c6)cc5)CC4)C3)CC2)C(C)(C)C)cc1` (stereo partly drawn) [degrader #18, (2S,4R)-1-((2S)-2-(9-(4-((4′-chloro-4-methyl-6-((4-(4-(((4-(((R)-4-morpholino-1-(phenylthio)butan-2-yl)amino)-3-((trifluoromethyl)sulfonyl)phenyl)sulfonyl)carbamoyl)phenyl)piperazin-1-yl)methyl)-2,3,4,5-tetrahydro-[1,1′-biphenyl]-4-yl)methyl)piperazin-1-yl)-9-oxononanamido)-3,3-dimethylbutanoyl)-4-hydroxy-N—((S)-1-(4-(4-methylthiazol-5-yl)phenyl)ethyl)pyrrolidine-2-carboxamide], the pIC50 in the experiment with RS4;11 cells and in the experiment with MOLT-4 cells was more than 7.30 each time.

Consider `Cc1ncsc1-c1ccc([C@H](C)NC(=O)[C@@H]2C[C@@H](O)CN2C(=O)[C@@H](NC(=O)CCCCCCCCC(=O)N2CCN(CC3(C)CCC(c4ccc(Cl)cc4)=C(CN4CCN(c5ccc(C(=O)NS(=O)(=O)c6ccc(N[C@H](CCN7CCOCC7)CSc7ccccc7)c(S(=O)(=O)C(F)(F)F)c6)cc5)CC4)C3)CC2)C(C)(C)C)cc1` (stereo partly drawn) [degrader #19, (2S,4R)-1-((2S)-2-(10-(4-((4′-chloro-4-methyl-6-((4-(4-(((4-(((R)-4-morpholino-1-(phenylthio)butan-2-yl)amino)-3-((trifluoromethyl)sulfonyl)phenyl)sulfonyl)carbamoyl)phenyl)piperazin-1-yl)methyl)-2,3,4,5-tetrahydro-[1,1′-biphenyl]-4-yl)methyl)piperazin-1-yl)-10-oxodecanamido)-3,3-dimethylbutanoyl)-4-hydroxy-N—((S)-1-(4-(4-methylthiazol-5-yl)phenyl)ethyl)pyrrolidine-2-carboxamide], for which the pIC50 with RS4;11 cells and in the experiment on MOLT-4 cells was 6.82 to 7.30 throughout.
